Test results: ChEMBL document CHEMBL6121066, “Structure-Activity Relationship Studies of DNA Methyltransferase 1 Monovalent Degraders” (J Med Chem, 2025)
The source made the active and inactive calls. The calls are words filed in the database; no cut-off is given here.

Key:
[1] = biological target: Histone-lysine N-methyltransferase EZH2 (Homo sapiens) (UniProt Q15910); test: Inhibition of human EZH2 using core histone and SAM as substrate at 1 uM by radioisotope-based MT HotSpot assay relative to control
Chain of Histone-lysine N-methyltransferase EZH2 (Homo sapiens) (Q15910 whole entry, looked up): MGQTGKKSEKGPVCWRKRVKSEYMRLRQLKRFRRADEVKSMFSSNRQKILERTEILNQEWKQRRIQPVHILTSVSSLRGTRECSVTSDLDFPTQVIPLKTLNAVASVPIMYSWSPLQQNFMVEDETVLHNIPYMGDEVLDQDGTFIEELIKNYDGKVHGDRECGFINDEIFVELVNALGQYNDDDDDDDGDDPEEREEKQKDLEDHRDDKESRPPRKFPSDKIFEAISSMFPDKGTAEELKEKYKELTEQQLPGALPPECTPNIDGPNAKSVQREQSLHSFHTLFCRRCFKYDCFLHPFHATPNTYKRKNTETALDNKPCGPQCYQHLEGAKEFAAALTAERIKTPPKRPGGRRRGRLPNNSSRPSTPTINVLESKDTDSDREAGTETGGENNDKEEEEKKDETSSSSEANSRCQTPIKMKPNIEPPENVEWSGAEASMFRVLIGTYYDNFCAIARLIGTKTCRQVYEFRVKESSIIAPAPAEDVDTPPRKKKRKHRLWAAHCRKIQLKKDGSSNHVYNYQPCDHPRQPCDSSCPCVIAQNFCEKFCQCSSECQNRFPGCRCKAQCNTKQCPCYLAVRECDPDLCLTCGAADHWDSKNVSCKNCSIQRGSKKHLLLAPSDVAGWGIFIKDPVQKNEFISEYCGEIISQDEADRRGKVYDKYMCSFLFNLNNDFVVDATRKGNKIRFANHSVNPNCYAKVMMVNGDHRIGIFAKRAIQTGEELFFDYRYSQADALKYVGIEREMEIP

[2] = tested on: HCT-116; test: Induction of molecular glue effect mediated DNMT1 degradation in human HCT-116 cells assessed as reduction in DNMT1 protein level at 100 nM preincubated with TRAF6 inhibitor C25-140 for 2 hrs followed by compound addition and measured after 24 hrs by Western blot analysis; format: cell-based
[3] = biological target: T1, Histone-lysine N-methyltransferase EHMT1 (Homo sapiens) (UniProt Q9H9B1); test: Inhibition of human GLP using Histone H3 and SAM as substrate at 1 uM by radioisotope-based MT HotSpot assay relative to control
T1 sequence (whole entry): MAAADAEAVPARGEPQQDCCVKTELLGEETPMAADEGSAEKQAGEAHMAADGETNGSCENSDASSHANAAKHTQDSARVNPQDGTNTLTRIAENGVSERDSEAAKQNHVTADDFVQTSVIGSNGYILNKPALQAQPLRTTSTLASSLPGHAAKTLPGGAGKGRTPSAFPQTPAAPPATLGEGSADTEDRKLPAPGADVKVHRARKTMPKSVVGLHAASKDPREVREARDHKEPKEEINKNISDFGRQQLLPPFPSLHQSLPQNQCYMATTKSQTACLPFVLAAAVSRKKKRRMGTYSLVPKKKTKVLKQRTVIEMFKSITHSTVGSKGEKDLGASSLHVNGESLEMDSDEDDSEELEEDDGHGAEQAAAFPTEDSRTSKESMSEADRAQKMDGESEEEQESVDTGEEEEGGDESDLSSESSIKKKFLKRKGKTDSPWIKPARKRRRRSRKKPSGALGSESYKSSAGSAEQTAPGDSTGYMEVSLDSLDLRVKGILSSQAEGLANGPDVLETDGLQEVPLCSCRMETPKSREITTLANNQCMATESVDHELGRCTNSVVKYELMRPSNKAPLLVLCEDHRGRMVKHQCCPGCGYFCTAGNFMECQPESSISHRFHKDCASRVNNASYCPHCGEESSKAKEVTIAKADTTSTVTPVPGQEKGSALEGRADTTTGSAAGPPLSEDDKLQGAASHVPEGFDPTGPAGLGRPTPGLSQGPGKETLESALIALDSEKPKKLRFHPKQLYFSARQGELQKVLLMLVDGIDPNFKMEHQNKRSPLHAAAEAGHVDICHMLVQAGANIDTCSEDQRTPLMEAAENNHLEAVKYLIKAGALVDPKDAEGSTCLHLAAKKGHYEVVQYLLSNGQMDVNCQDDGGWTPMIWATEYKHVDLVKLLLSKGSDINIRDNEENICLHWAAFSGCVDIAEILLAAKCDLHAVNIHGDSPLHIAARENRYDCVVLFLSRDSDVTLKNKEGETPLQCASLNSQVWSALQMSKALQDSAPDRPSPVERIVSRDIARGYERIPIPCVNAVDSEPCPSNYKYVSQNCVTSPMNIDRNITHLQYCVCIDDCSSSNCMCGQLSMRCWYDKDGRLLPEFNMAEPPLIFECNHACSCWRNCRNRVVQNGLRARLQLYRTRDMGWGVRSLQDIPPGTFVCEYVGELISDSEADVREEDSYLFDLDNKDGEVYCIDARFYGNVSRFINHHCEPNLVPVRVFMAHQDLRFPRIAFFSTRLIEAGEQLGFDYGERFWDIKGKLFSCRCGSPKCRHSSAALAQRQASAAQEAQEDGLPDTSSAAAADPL

[4] = tested on: HCT-116; test: Induction of molecular glue effect mediated DNMT3A degradation in human HCT-116 cells assessed as reduction in DNMT3A protein level at 500 nM incubated for 24 hrs by Western blot analysis; format: cell-based
[5] = tested on: HCT-116; test: Induction of molecular glue effect mediated DNMT1 degradation in human HCT-116 cells assessed as reduction in DNMT1 protein level by measuring maximal efficacy at 1 uM incubated for 24 hrs by Western blot analysis relative to control; format: cell-based
[6] = biological target: DNA (cytosine-5)-methyltransferase 3B (Homo sapiens) (UniProt Q9UBC3); test: Inhibition of human full-length DNMT3B using lambda DNA and SAM as substrate at 1 uM by radioisotope-based MT HotSpot assay relative to control
[7] = tested on: MDA-MB-468; test: Induction of molecular glue effect mediated DNMT1 degradation in human MDA-MB-468 cells assessed as reduction in DNMT1 protein level at 100 nM preincubated with MG132 for 2 hrs followed by compound addition and measured after 24 hrs by Western blot analysis; format: cell-based
[8] = biological target: T2, Histone-arginine methyltransferase CARM1 (Homo sapiens) (UniProt Q86X55); test: Inhibition of human PRMT4 using histone H3 and SAM as substrate at 1 uM by radioisotope-based MT HotSpot assay relative to control
T2 sequence (whole entry): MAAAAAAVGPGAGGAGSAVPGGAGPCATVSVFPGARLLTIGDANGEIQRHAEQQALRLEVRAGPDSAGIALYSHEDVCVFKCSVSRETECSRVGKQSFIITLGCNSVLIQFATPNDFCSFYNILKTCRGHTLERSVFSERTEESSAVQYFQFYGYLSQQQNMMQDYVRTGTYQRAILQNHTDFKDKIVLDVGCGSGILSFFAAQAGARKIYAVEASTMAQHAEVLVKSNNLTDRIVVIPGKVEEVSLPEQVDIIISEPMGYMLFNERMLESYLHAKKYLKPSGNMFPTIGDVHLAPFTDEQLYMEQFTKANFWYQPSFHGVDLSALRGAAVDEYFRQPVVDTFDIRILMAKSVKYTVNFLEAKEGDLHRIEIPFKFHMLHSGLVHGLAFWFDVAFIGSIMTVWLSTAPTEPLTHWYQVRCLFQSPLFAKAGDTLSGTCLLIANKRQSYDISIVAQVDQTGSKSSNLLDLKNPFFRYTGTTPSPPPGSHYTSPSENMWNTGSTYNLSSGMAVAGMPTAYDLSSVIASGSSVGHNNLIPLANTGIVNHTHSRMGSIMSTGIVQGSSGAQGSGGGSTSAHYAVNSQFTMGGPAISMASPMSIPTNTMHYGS

[9] = tested on: HCT-116; test: Antiproliferative activity against human HCT-116 cells assessed as inhibition of cell growth upto 15 uM incubated for 7 days by CCK8 assay relative to control; format: functional; conditions: time 7 day, up to 15 µM
[10] = tested on: HCT-116; test: Induction of molecular glue effect mediated DNMT1 degradation in human HCT-116 cells transfected with NEDD4 siRNA assessed as reduction in DNMT1 protein level at 100 nM measured after 24 hrs by Western blot analysis; format: cell-based
[11] = biological target: Histone-lysine N-methyltransferase, H3 lysine-79 specific (Homo sapiens) (UniProt Q8TEK3); test: Inhibition of human DOT1L using oligo nucleosomes and SAM as substrate at 1 uM by radioisotope-based MT HotSpot assay relative to control
Chain of Histone-lysine N-methyltransferase, H3 lysine-79 specific (Homo sapiens) (Q8TEK3 whole entry, looked up): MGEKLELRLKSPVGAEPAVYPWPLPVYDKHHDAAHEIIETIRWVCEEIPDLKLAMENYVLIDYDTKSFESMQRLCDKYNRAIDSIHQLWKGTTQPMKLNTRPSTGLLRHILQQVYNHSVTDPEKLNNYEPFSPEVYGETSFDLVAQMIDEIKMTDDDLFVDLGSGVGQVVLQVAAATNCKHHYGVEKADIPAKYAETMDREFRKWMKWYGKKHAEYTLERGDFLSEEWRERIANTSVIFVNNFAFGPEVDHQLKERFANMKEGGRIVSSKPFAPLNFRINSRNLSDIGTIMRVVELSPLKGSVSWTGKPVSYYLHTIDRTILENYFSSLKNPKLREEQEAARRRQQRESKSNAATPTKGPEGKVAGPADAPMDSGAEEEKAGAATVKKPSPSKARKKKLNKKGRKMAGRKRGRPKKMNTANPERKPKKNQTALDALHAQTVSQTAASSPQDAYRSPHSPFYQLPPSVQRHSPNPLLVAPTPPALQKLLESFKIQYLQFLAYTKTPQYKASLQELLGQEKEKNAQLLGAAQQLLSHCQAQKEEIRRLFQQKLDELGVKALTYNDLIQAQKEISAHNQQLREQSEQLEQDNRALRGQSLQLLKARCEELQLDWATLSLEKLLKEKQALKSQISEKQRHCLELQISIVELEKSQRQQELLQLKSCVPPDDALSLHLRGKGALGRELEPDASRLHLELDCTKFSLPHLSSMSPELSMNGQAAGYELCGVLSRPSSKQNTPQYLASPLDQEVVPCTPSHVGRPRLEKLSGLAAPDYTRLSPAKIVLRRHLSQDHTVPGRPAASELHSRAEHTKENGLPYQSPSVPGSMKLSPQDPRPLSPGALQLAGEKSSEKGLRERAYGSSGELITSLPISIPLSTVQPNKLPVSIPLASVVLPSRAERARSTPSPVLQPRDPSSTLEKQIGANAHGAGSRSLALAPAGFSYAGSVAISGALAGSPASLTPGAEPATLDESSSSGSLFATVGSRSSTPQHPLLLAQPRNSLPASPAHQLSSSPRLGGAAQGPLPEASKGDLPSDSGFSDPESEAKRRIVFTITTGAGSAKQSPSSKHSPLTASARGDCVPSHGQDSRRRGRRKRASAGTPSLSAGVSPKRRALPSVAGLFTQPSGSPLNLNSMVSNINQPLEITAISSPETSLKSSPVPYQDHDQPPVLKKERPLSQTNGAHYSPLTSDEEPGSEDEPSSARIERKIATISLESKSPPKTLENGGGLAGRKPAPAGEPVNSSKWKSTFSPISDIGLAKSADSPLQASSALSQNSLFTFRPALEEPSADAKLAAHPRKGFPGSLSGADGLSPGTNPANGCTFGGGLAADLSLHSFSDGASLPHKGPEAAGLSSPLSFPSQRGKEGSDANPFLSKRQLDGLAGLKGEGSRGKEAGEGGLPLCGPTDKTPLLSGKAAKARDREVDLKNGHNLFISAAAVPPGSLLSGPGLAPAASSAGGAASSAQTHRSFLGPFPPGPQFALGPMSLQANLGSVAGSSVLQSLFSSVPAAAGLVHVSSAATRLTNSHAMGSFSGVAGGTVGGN

[12] = tested on: HCT-116; test: Induction of molecular glue effect mediated DNMT1 degradation in human HCT-116 cells assessed as reduction in DNMT1 protein level at 500 nM by Western blot analysis; format: cell-based; conditions: time 2-24 hrs

SMILES: CCc1c(C#N)c(SC(C(N)=O)c2ccccc2)nc(N(C)CC(=O)NC)c1C#N (configuration not stated)
- inhibition [1]: < 20%
- Activity [2]: Active
- inhibition [3]: < 20%
- Activity [4]: inactive
- Emax [5]: 89%
- inhibition [6]: < 20%
- Activity [7]: inactive
- inhibition [8]: < 20%
- inhibition (INH) [9]: <50%
- Activity [10]: Active
- inhibition [11]: < 20%
- Activity [12]: Time-dependent-effect
